Data from the NIST ThermoML archive (doi:10.1016/j.jct.2014.12.020).

Test: wn = mass fraction of the nth substance listed
Conditions: 100 kPa, Liquid; for viscosity: Concentric cylinders viscometry; for mass density: Vibrating tube method

C[C@H](O)C(=O)[O-].C[N+](C)(C)CCO + O
Conditions	mass density [kg/m3]	viscosity [mPa·s]
293.15 K, w2 = 0.004	1140.9	3661.3
293.15 K, w2 = 0.011	1142	2703
293.15 K, w2 = 0.02	1142.3	1543.3
293.15 K, w2 = 0.029	1141.9	1408.3
293.15 K, w2 = 0.045	1140.9	888
293.15 K, w2 = 0.066	1139.9	546.3
293.15 K, w2 = 0.077	1139.3	421.4
293.15 K, w2 = 0.121	1137	201.3
293.15 K, w2 = 0.167	1135.4	119.8
293.15 K, w2 = 0.218	1131.4	70.5
293.15 K, w2 = 0.24	1127.4	48
298.15 K, w2 = 0.004	1137.8	2310.1
298.15 K, w2 = 0.011	1138.8	1732.1
298.15 K, w2 = 0.02	1139	1021
298.15 K, w2 = 0.029	1138.5	936.5
298.15 K, w2 = 0.045	1137.5	604.3
298.15 K, w2 = 0.066	1136.5	380.6
298.15 K, w2 = 0.077	1136	297.1
298.15 K, w2 = 0.121	1133.7	146.7
298.15 K, w2 = 0.167	1132.1	89.1
298.15 K, w2 = 0.218	1128.1	53.6
298.15 K, w2 = 0.24	1124.1	37.1
303.15 K, w2 = 0.004	1134.7	1510.1
303.15 K, w2 = 0.011	1135.6	1150.1
303.15 K, w2 = 0.02	1135.7	697.5
303.15 K, w2 = 0.029	1135.2	642.3
303.15 K, w2 = 0.045	1134.2	423.6
303.15 K, w2 = 0.066	1133.3	272.7
303.15 K, w2 = 0.077	1132.7	215.2
303.15 K, w2 = 0.121	1130.5	109.4
303.15 K, w2 = 0.167	1128.9	67.8
303.15 K, w2 = 0.218	1124.8	41.6
303.15 K, w2 = 0.24	1120.8	29.2
308.15 K, w2 = 0.004	1131.7	1019.4
308.15 K, w2 = 0.011	1132.4	787.6
308.15 K, w2 = 0.02	1132.4	490.6
308.15 K, w2 = 0.029	1131.8	453.5
308.15 K, w2 = 0.045	1130.9	305
308.15 K, w2 = 0.066	1130.1	200.4
308.15 K, w2 = 0.077	1129.6	159.8
308.15 K, w2 = 0.121	1127.3	83.5
308.15 K, w2 = 0.167	1125.8	52.6
308.15 K, w2 = 0.218	1121.6	32.9
308.15 K, w2 = 0.24	1117.6	23.4
313.15 K, w2 = 0.004	1128.6	708.4
313.15 K, w2 = 0.011	1129.1	554.7
313.15 K, w2 = 0.02	1129.2	354.1
313.15 K, w2 = 0.029	1128.6	328.4
313.15 K, w2 = 0.045	1127.8	225
313.15 K, w2 = 0.066	1126.9	150.7
313.15 K, w2 = 0.077	1126.4	121.4
313.15 K, w2 = 0.121	1124.2	65
313.15 K, w2 = 0.167	1122.6	41.7
313.15 K, w2 = 0.218	1118.5	26.4
313.15 K, w2 = 0.24	1114.5	18.9
318.15 K, w2 = 0.004	–	505.4
318.15 K, w2 = 0.011	–	400.7
318.15 K, w2 = 0.02	–	261.6
318.15 K, w2 = 0.029	–	243.5
318.15 K, w2 = 0.045	–	169.7
318.15 K, w2 = 0.066	–	115.6
318.15 K, w2 = 0.077	–	94
318.15 K, w2 = 0.121	–	51.5
318.15 K, w2 = 0.167	–	33.6
318.15 K, w2 = 0.218	–	21.6
318.15 K, w2 = 0.24	–	15.8
